Data: patent US8071654B2, “Inhibitors of thromboxane formation and action” (priority 2000, dated 2011)

Experiments:
human platelets = assay: collagen-evoked aggregation of washed human platelets; format: cell-based
Experimental: Venous blood was obtained from healthy human subjects who had not taken NSAID's for at least two weeks. Blood was drawn into plastic syringes containing ACD. […] The platelet rich plasma was transferred into fresh plastic tubes and centrifuged at 400×g for 5 min. […] A platelet count was made, which determined the volume of platelet suspension needed to make up 350×10^6 cells for each measurement. The aliquot was diluted with medium to make 0.5 ml/assay/cuvette. Appropriate calibration of the aggregometer (PAP-4C) for 0% and 100% transmission was carried out through the use of a sample of platelet suspension and cell-free medium (37).
0.5 ml of platelet suspension was added to siliconized glass tubes (four at a time) and heated with magnetic stirring to 37° for 1 min in a platelet aggregometer (PAP-4C). Either vehicle alone (ethanol, 1 μl) or hepoxilin analog was then added, followed two min later by agonist (collagen: 2 μg; PGH2: 100 ng/0.5 ml; U46619: 10 ng/0.5 ml or I-BOP: 2 ng/0.5 ml). The response was recorded for the next 5 min. In experiments where analysis of TxB2 and HHT were to be made by HPLC, the platelet suspension at the end of the experiment was diluted with ethyl acetate, 100 ng of prostaglandin B1 was added as internal standard, and the mixture was acidified to pH 3 with 0.1 N HCl. After centrifugation, the organic layer was separated, washed twice with water to neutrality, and evaporated to dryness. Half of the sample was taken and was resuspended in 1 ml ethyl acetate containing 20 μg ADAM reagent, and was left in the dark for 2 h (38). The solvent was then evaporated and the residue was acetylated with a solution of pyridine/acetic anhydride (3/1, v/v) during 16 h at 23°. The reagents were evaporated to dryness and the residue was resuspended in acetonitrile/water for HPLC analysis. In experiments where the conversion of tritiated PGH2 was to be monitored, the procedure described above was repeated with tritiated PGH2 instead of unlabeled PGH2. After extraction of the sample as described above, the radiolabeled compounds were analyzed by TLC. Dose response curves for varying amounts of test compounds were generated and the data expressed as % inhibition of collagen-induced platelet aggregation. Each point was investigated 5 times and statistical analysis of the data was carried out using Macintosh Statview statistical software.

COX-2 = molecular target: T1, COX-2 (Homo sapiens, UniProt P35354); assay: COX-2 activity, 14C-arachidonic acid conversion, TLC; format: biochemical; details: for COX-2 enzyme activity (% of control values, mean ± SD): n = 3
T1 construct: purchased Cayman Chemicals
T1 sequence (P35354 18-604): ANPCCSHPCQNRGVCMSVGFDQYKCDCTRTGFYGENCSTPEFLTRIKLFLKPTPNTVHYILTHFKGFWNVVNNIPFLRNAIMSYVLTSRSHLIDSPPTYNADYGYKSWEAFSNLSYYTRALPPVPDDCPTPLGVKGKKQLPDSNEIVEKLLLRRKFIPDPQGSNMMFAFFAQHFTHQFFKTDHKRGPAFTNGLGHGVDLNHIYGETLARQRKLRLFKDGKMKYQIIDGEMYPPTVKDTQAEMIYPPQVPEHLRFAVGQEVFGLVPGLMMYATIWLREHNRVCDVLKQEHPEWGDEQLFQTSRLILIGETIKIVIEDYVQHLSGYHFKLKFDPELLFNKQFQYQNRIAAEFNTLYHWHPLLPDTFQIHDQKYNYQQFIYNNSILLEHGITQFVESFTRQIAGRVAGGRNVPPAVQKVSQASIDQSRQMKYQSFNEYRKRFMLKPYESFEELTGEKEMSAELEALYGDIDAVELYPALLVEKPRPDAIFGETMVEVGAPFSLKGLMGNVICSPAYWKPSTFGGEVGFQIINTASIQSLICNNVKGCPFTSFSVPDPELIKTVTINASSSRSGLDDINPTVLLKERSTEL
Experimental: COX-1 and COX-2 enzyme preparations were purchased from Cayman Chemicals. Preliminary studies established that 40 U of COX-1 or COX-2 could convert about 70% of ^14C-arachidonic acid (spec. act. 55 mCi/mmol, Ontario Isotopes, Ontario, Canada; 100,000 cpm were diluted with 0.5 μg unlabeled arachidonic acid (Cayman Chemicals)/1 ml assay) into products in vitro. Different amounts of PBT-3 (10 μg and 20 μg) were added and the conversion of AA into products was assessed during a 10 min reaction in 1 ml phosphate buffer at 37°. After extraction, products were assessed by TLC (silica gel G, ethyl acetate/acetic acid, 99/1, v/v). After development, the TLC plates were scanned for radioactive products with a Berthold TLC radiochromatogram scanner and the radioactivity was quantified by scraping zones of silica gel, placing in scintillation vials, elution with 1 ml methanol and addition of scintillation medium. Radioactivity was determined by conventional counting in a beta scintillation counter.

[1] = intra ocular pressure in rats, eye drops, TonoPen; format: in vivo, Brown Norway rats; details: 0.005%, one drop daily to left eye, after 10 days' treatment, vs untreated right eye
Experimental: Brown Norway rats (300 g) were purchased from Charles River (St. Constant, Que), and housed (two/cage) in an animal facility with free access to food and water. A light cycle of 12 h on and 12 h off was maintained. Animals were allowed to adjust for one week prior to treatment during which period they were handled daily to get them familiarized with the procedures.
Prior to treatment with test drugs, the rats' intra ocular pressures (IOP) were measured to establish baseline readings. One drop of Didocaine (0.5%, Dioptic Labs, Markham, Ont) was administered to each eye, and the pressure in each eye was measured with a TonoPen (Mentor XL, Innova Medical Ophthalmics, Toronto). The treatment protocol consisted of daily administration of one drop of one of the following substances to the left eye, the right eye being left untreated to act as a control. […] Following this, the animals were left without treatment for 2 weeks (wash-out), and then treatment was started again, the same animals receiving the same drugs. Results are calculated from at least 30 readings/test animal and presented as the mean±SEM (left eye vs right eye), with the exclusion of readings >50 and <10 which were considered spurious and artifactual readings.

CCCCC/C=C\CC1CC1[C@@H](O)/C=C\C/C=C\CCCC(=O)OC (stereo partly drawn) [PBT-3, 10(S)-hydroxy-11,12-cyclopropyl-eicosa-5Z,8Z,14Z-trienoic acid methyl ester]
IC50 (human platelets; Homo sapiens, Platelet, washed human platelets, collagen 2 μg, read-out: IC50 for inhibition of collagen-evoked aggregation): ~800 nM
inhibition of collagen-evoked aggregation (human platelets; single dose 1 μg added 2 min prior to collagen (2 μg), 350×10^6 washed human platelets in 0.5 ml): inhibited the collagen effect, with PBT-3 being the most potent
COX-2 enzyme activity (% of control values, mean ± SD) (COX-2; PBT-3 3.00 μM): 109.2 ± 8.0^NS % of control
COX-2 enzyme activity (% of control values, mean ± SD) (COX-2; PBT-3 30.0 μM): 107.1 ± 14^NS % of control
inhibition of COX-2, in words (COX-2; relatively large amounts of PBT-3, about 3-4 log doses greater than required to inhibit the TP receptor): Neither COX-1, COX-2,12-LOX nor Plase A2 was inhibited
effect on intra ocular pressure (IOP) [1]: significant reduction in IOP, comparable to that produced by latanoprost
